Measurements taken from US12497393B2, “β-lactam compound, use thereof and preparation method therefor” (priority 2020, dated 2025).
≈ marks a conversion by molar mass, not a printed value. Read-outs that look alike come from different tables or passages of the source.

Legend:
Experiment in all cases: Antibacterial activity MIC assay (two-fold dilution agar plating)
Type in all cases: cell-based
Proteus mirabilis = conditions: Proteus mirabilis, ATCC49565, Proteus mirabilis ATCC 49565; read-out: Minimal Inhibitory Concentration (MIC)
Method: (§1) Antibacterial Activity-Evaluating Method (MIC Assay)
(§2) In this study, the compounds of the present invention were tested for their antibacterial activities by using two-fold dilution agar plating method and Denley Multipoint Inoculator A400 according to the guidelines of the CLSI/NCCLS standard. The tested strains were amplified by hydrolyzed casein peptone (Mueller-Hinton Agar) broth and Brain and Heart Infusion. The strains used in this study were bacterial strains that were purchased from ATCC or clinically isolated in Chinese hospitals. Aztreonam, polymyxin or levofloxacin was used as positive control. The drugs were diluted with hydrolyzed casein peptone broth to the desired concentrations including 128.0, 64.0, 32.0, 16.0, 8.0, 4.0, 2.0, 1.0, 0.5, 0.25, 0.125, 0.06 and 0.03 μg/mL, and then placed respectively into each well and mixed thoroughly. After inoculation, the tested strains were incubated for 18 hours at a constant temperature of 35° C., and their growth levels were observed. The drug concentration with no microbial growth in the well was recorded as the lowest Minimal Inhibitory Concentration (MIC).

Enterobacter aerogenes = conditions: Klebsiella aerogenes, ATCC13048; Enterobacter aerogenes ATCC 13048; read-out: Minimal Inhibitory Concentration (MIC)
Method: as §1, §2

Klebsiella Pneumoniae = conditions: Klebsiella pneumoniae, read-out: Minimal Inhibitory Concentration (MIC)
Method: as §1, §2

Proteus vulgaris = conditions: Proteus vulgaris, ATCC29905, Proteus vulgaris ATCC 29905; read-out: Minimal Inhibitory Concentration (MIC)
Method: as §1, §2

Citrobacter freundii = conditions: ATCC43864; Citrobacter freundii ATCC 43864; read-out: Minimal Inhibitory Concentration (MIC)
Method: as §1, §2

Shigella flexneri = conditions: ATCC12022; Shigella flexneri ATCC 12022; read-out: Minimal Inhibitory Concentration (MIC)
Method: as §1, §2

Providencia rettgeri = conditions: Providencia rettgeri, ATCC31052, Providencia rettgeri ATCC 31052; read-out: Minimal Inhibitory Concentration (MIC)
Method: as §1, §2

Escherichia coli = conditions: Escherichia coli, read-out: Minimal Inhibitory Concentration (MIC)
Method: as §1, §2

Salmonella typhi = conditions: Salmonella enterica, TYPHI, read-out: Minimal Inhibitory Concentration (MIC)
Method: as §1, §2

Enterobacter cloacae = conditions: read-out: Minimal Inhibitory Concentration (MIC)
Method: as §1, §2

Serratia marcescens = conditions: ATCC21074; Serratia marcescens ATCC 21074; read-out: Minimal Inhibitory Concentration (MIC)
Method: as §1, §2

Acinetobacter baumannii = conditions: Acinetobacter baumannii, read-out: Minimal Inhibitory Concentration (MIC)
Method: as §1, §2

Pseudomonas aeruginosa = conditions: read-out: Minimal Inhibitory Concentration (MIC)
Method: as §1, §2

[1] = tested on: Stenotrophomonas maltophilia; conditions: ATCC13636; Stenotrophomonas maltophilia ATCC 13636; read-out: Minimal Inhibitory Concentration (MIC)
Method: as §1, §2

[2] = ATCC700603, Klebsiella Pneumoniae ATCC 700603, ESBLs(+)
[3] = ATCCBAA2146, Klebsiella Pneumoniae ATCC BAA-2146, NDM-1(+)
[4] = Klebsiella Pneumoniae 09-20, mcr-1(+)
[5] = Klebsiella Pneumoniae 16-2, ESBLs(−)
[6] = Klebsiella Pneumoniae 16-14, ESBLs(+)
[7] = Klebsiella Pneumoniae 17-R27, CRE
[8] = ATCC25922, Escherichia coli ATCC 25922, ESBLs(−)
[9] = ATCC35218, Escherichia coli ATCC 35218, ESBLs(+)
[10] = Escherichia coli 08-85, mcr-1(+)
[11] = Escherichia coli 13-43, mcr-1(+)
[12] = Escherichia coli 13-66, mcr-1(+)
[13] = Escherichia coli 16-1, ESBLs(+)
[14] = Escherichia coli 16-7, ESBLs(−)
[15] = Escherichia coli 17-R28, CRE, NDM-1(+)
[16] = Escherichia coli CDC1001728, NDM-1(+)
[17] = ATCC43560, Enterobacter cloacae ATCC 43560
[18] = Enterobacter cloacae CDC1000654
[19] = ATCC19606, Acinetobacter baumannii ATCC 19606
[20] = ATCC27853, Pseudomonas aeruginosa ATCC 27853

Compound	MIC (Proteus mirabilis)	MIC (Enterobacter aerogenes)	MIC (Klebsiella Pneumoniae; [2])	MIC (Klebsiella Pneumoniae; [3])	MIC (Klebsiella Pneumoniae; [4])	MIC (Klebsiella Pneumoniae; [5])	MIC (Klebsiella Pneumoniae; [6])	MIC (Klebsiella Pneumoniae; [7])	MIC (Proteus vulgaris)	MIC (Citrobacter freundii)	MIC (Shigella flexneri)	MIC (Providencia rettgeri)	MIC (Escherichia coli; [8])	MIC (Escherichia coli; [9])	MIC (Escherichia coli; [10])	MIC (Escherichia coli; [11])	MIC (Escherichia coli; [12])	MIC (Escherichia coli; [13])	MIC (Escherichia coli; [14])	MIC (Escherichia coli; [15])	also measured
CC(C)[C@H](O/N=C(\C(=O)N[C@@H]1C(=O)N(OS(=O)(=O)O)C1(C)C)c1csc(N)n1)C(=O)O [Compound A-4]	≤ 0.03 µg/mL	0.5 µg/mL (≈ 1.04 µM)	2 µg/mL (≈ 4.17 µM)	0.5 µg/mL (≈ 1.04 µM)	0.12 µg/mL (≈ 0.25 µM)	1 µg/mL (≈ 2.09 µM)	0.25 µg/mL (≈ 0.521 µM)	0.25 µg/mL (≈ 0.521 µM)	≤ 0.03 µg/mL	0.12 µg/mL (≈ 0.25 µM)	0.25 µg/mL (≈ 0.521 µM)	≤ 0.03 µg/mL	0.25 µg/mL (≈ 0.521 µM)	0.12 µg/mL (≈ 0.25 µM)	0.25 µg/mL (≈ 0.521 µM)	0.25 µg/mL (≈ 0.521 µM)	0.25 µg/mL (≈ 0.521 µM)	0.12 µg/mL (≈ 0.25 µM)	0.25 µg/mL (≈ 0.521 µM)	8 µg/mL (≈ 16.7 µM)	MIC (Escherichia coli; [16]): 0.5 µg/mL (≈ 1.04 µM); MIC (Salmonella typhi): 0.12 µg/mL (≈ 0.25 µM); MIC (Enterobacter cloacae; [17]): 0.12 µg/mL (≈ 0.25 µM); MIC (Enterobacter cloacae; [18]): 1 µg/mL (≈ 2.09 µM); MIC (Serratia marcescens): 0.25 µg/mL (≈ 0.521 µM); MIC (Acinetobacter baumannii; [19]): 64 µg/mL (≈ 133 µM); MIC (Acinetobacter baumannii; Acinetobacter baumannii 16-16): > 64 µg/mL; MIC (Acinetobacter baumannii; Acinetobacter baumannii 16-33): 32 µg/mL (≈ 66.7 µM); MIC (Pseudomonas aeruginosa; [20]): 8 µg/mL (≈ 16.7 µM); MIC (Pseudomonas aeruginosa; Pseudomonas aeruginosa 16-11): 8 µg/mL (≈ 16.7 µM); MIC (Pseudomonas aeruginosa; Pseudomonas aeruginosa PAO1): 4 µg/mL (≈ 8.34 µM); MIC [1]: 8 µg/mL (≈ 16.7 µM)
CC(C)[C@@H](O/N=C(\C(=O)N[C@@H]1C(=O)N(OS(=O)(=O)O)C1(C)C)c1csc(N)n1)C(=O)O [Compound A-5]	1 µg/mL (≈ 2.09 µM)	32 µg/mL (≈ 66.7 µM)	64 µg/mL (≈ 133 µM)	> 64 µg/mL	16 µg/mL (≈ 33.4 µM)	32 µg/mL (≈ 66.7 µM)	16 µg/mL (≈ 33.4 µM)	32 µg/mL (≈ 66.7 µM)	4 µg/mL (≈ 8.34 µM)	16 µg/mL (≈ 33.4 µM)	64 µg/mL (≈ 133 µM)	4 µg/mL (≈ 8.34 µM)	16 µg/mL (≈ 33.4 µM)	16 µg/mL (≈ 33.4 µM)	32 µg/mL (≈ 66.7 µM)	32 µg/mL (≈ 66.7 µM)	16 µg/mL (≈ 33.4 µM)	8 µg/mL (≈ 16.7 µM)	32 µg/mL (≈ 66.7 µM)	> 64 µg/mL	MIC (Escherichia coli; [16]): 32 µg/mL (≈ 66.7 µM); MIC (Salmonella typhi): 32 µg/mL (≈ 66.7 µM); MIC (Enterobacter cloacae; [17]): 16 µg/mL (≈ 33.4 µM); MIC (Enterobacter cloacae; [18]): > 64 µg/mL; MIC (Serratia marcescens): 32 µg/mL (≈ 66.7 µM); MIC (Acinetobacter baumannii; [19]): > 64 µg/mL; MIC (Acinetobacter baumannii; Acinetobacter baumannii 16-16): > 64 µg/mL; MIC (Acinetobacter baumannii; Acinetobacter baumannii 16-33): > 64 µg/mL; MIC (Pseudomonas aeruginosa; [20]): > 64 µg/mL; MIC (Pseudomonas aeruginosa; Pseudomonas aeruginosa 16-11): > 64 µg/mL; MIC (Pseudomonas aeruginosa; Pseudomonas aeruginosa PAO1): > 64 µg/mL; MIC [1]: > 64 µg/mL
